In patent US20060241108A1, “Substituted phenoxazines and acridones as inhibitors of AKT” (St. Jude Children's Research Hospital, priority 2005, published 2006):

Legend:
Type in all cases: cell-based, human
[1] = system: AKT; experiment: Inhibition of IGF-I stimulated AKT phosphorylation (Ser473) in Rh1 cells, Western blot; conditions: 5 μM, 1 hour, serum starved Rh1 cells, IGF-I 10 ng/ml 10 minutes; average of two experiments
Protocol: Cell lines and growth conditions. The human cell lines Rh1, Rh18, and Rh30 (ATCC Deposit # CRL 2061) have been described, e.g., by Hazelton et al. Cancer Res 1987;47:4501-4507 and Hosoi et al. Cancer Res. 1999;59:886-894. Rh1, Rh18 and Rh30 cells can each be grown in antibiotic free RPMI-1640 medium (available from BioWhittaker, Walkersville, Md.), supplemented with 10% fetal bovine serum (available from HyClone Laboratories, Logan, Utah) and 2 mM L-glutamine (available from BioWhittaker, Walkersville, Md.) at 37° C. in an atmosphere of 5% CO2. For serum free experiments, cells can be cultured in modified N2E (MN2E) medium (DMEM/F-12, 1:1 mixture) (Sigma, St. Louis, Mo.) supplemented with 1 μg/ml human holo transferrin, 30 nM sodium selenite, 20 nM progesterone, 100 μM putrescine, 30 nM vitamin E phosphate, and 50 μM ethanolamine. Cells in MN2E medium containing 5 μg/ml bovine fibronectin (available from Sigma, St. Louis, Mo.) are preferably plated, and allowed to attach overnight at 37° C. in a humidified, 5% CO2 atmosphere.
(§1) Cellular screening for inhibitors. Rh1, Rh18 and Rh30 cells can each be seeded at a density of 4×10^6/10-cm plate in serum-free medium for overnight attachment. The cells can then be exposed to 0.1% DMSO or to a test compound (for example, a phenoxazine or acridone compound) for one hour, then stimulated with Insulin-like growth factor-I (IGF-I) (10 ng/ml) for 10 minutes.
(§2) Western blot analysis. Cells are rapidly washed with ice-cold phosphate-buffered saline (PBS), placed on ice, and lysed in mammalian protein extraction reagent (M-PER; available from Pierce, Rockford, Ill.) containing one Complete™ mini protease inhibitor tablet (available from Boehringer Mannheim, Mannheim, Germany), 1 mM phenylmethylsulfonyl fluoride, 1 mM Na3VO4 and 1 mM NaF. Cellular debris is pelleted by centrifugation at 17,500×g for 10 minutes at 4° C. The protein concentration of the supernatants is measured by the bicinchoninic acid assay (e.g., using the BCA™ Protein Assay Kit, Pierce, Rockford, Ill., catalog number 23225 or 23227) using bovine serum albumin as the standard.
For the analysis of AKT, ERK-1/2, mTOR, p70S6 kinase, ribosomal protein S6 (rpS6 or S6), and glycogen synthase kinase 3 (GSK-3), equivalent amounts of protein can be separated on a 12% SDS-polyacrylamide gel (available from BioRad, Hercules, Calif.) by electrophoresis and subsequently transferred to a nitrocellulose membrane (also available from BioRad). After a 1 hour incubation in 1×TBS containing 0.05% Tween 20 and 5% blocking reagent (skim milk) (available from Upstate Biotechnology, Lake Placid, N.Y.) at room temperature, the wet nitrocellulose membranes are incubated with appropriate antibodies (available from Cell Signaling Technology, Beverly, Mass.): rabbit polyclonal antiserum specific for the phosphorylated Ser473 or Thr308 of AKT (dilution 1:1000); rabbit polyclonal antiserum specific for phosphorylated Thr202/Tyr204 of ERK-1/2 (dilution 1:1000); rabbit polyclonal antiserum specific for phosphorylated Ser2448 or Ser2481 of mTOR (dilution 1:1000); rabbit polyclonal antiserum specific for phosphorylated Thr389 of p70S6 kinase (dilution 1:4000); rabbit polyclonal antiserum specific for phosphorylated Ser235/236 of rpS6 (dilution 1:1000); or rabbit polyclonal antiserum specific for phosphorylated Ser21/9 of GSK-3α/β (dilution 1:1000). Horseradish peroxidase-conjugated goat anti-rabbit IgG antibody (dilution 1:10,000) can be used as the secondary antibody. Immunoreactive protein can be visualized using Renaissance chemiluminescence reagent (available from Life Science Products Inc., Boston, Mass.).
For these assays, Rh1 cells are seeded in serum-free medium for overnight attachment. The serum starved Rh1 cells are then exposed to 1-5 μM of a compound in Table I for 1 hour before stimulating with IGF-I (10 ng/ml) for 10 minutes. […]

[2] = system: AKT, mTOR and rpS6; experiment: IGF-1-induced phosphorylation of AKT, mTOR and rpS6 in serum-starved Rh18 cells
Protocol: as §1
as §2, with “standard. […]” for “standard.”

[3] = system: AKT, mTOR and rpS6; experiment: IGF-1-induced phosphorylation of AKT, mTOR and rpS6 in serum-starved Rh30 cells
Protocol: as §1
as §2, with “standard. […]” for “standard.”

[4] = system: Rh1, Rh18 and/or Rh30 cells; experiment: Determination of apoptosis, cell line not specified for the result
Text: Determination of apoptosis.
Similar experiments can be performed using compounds that are relatively poor inhibitors of AKT in vitro but, preferably, are chemically similar to the phenoxazine or other compounds tested that are effective inhibitors of AKT. For example, the apoptosis of cells in response to the phenoxazine compound 12B or 20B, which are relatively poor inhibitors of AKT in vitro, can be compared to apoptosis of cells in response to the chemically similar compounds 10B and/or 15B, which are effective AKT inhibitors. In this way, a skilled practitioner can evaluate whether apoptosis observed in response to an effective AKT inhibitor (e.g., apoptosis observed in response to compound 10B or 15B) is due to a general toxic effect rather than AKT inhibition.

Question: Which “Inhibition (phosphorylation of AKT at Ser 473)” value [1] does the source give for “10-(N-pyrrolidinoacetyl)-2-chlorophenoxazine [Compound 20B]” here?
Answer: −−− (−−− <25% inhibition)

Question: What about the “block of IGF-1-induced phosphorylation of AKT, mTOR and rpS6” value [2] of the same substance?
Answer: possible exception

Question: What about the “block of IGF-1-induced phosphorylation of AKT, mTOR and rpS6” value [3] of the same substance?
Answer: possible exception

Question: And the “induction of apoptosis” value [4]?
Answer: neither the compound 12B or 20B
